Results on 30 compounds are retold here after patent publication US20250188057A1, “NON-AROMATIC CYCLIC-PYRIMIDINE ANALOGS AS GLUCOSYLCERAMIDE SYNTHASE INHIBITORS” (Merck Sharp & Dohme LLC, priority 2022, published 2025).

What is called pIC50 is the negative decadic logarithm of the IC50, by convention in mol/L. A lower pIC50 goes with a high IC50.

The structures appear in SMILES notation. pIC50: −log10 of the molar value.

glucosylceramide synthase (GCS), sequence (Q16739 whole entry): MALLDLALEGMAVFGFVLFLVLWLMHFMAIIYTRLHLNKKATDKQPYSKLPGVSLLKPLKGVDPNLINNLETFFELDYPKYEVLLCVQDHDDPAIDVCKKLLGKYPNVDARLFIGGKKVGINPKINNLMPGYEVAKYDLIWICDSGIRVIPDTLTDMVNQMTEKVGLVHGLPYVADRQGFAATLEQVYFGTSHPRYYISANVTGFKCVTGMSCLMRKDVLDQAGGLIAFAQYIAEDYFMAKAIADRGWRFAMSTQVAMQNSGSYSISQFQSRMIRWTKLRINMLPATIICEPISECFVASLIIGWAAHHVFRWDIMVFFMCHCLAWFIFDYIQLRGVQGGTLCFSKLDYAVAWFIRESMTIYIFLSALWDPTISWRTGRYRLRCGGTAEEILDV

The assay addresses glucosylceramide synthase (GCS) (Homo sapiens (Human), UniProt Q16739). In words: UDP-Glo glucosylceramide synthase biochemical assay. As to conditions: endogenous GCS in Golgi preparations isolated from human A375 malignant melanoma skin cells; UDP detection by luminescence. The source says: A UDP-Glo™ glucosylceramide synthase biochemical assay was utilized to evaluate the effect of test compounds on the activity of endogenous levels of GCS enzyme contained within Golgi preparations isolated from human A375 malignant melanoma skin cells. The UDP-Glo™ glucosylceramide synthase assay uses UDP-Glucose as a nucleotide-glycosyl donor and ceramide as substrate acceptor molecules. In the reaction, glucosylceramide synthase (GCS) transfers glucose from UDP-Glucose to ceramide. Glucosylceramide and UDP are released as products.
Using Promega's UDP-Glo™ Glycosyltransferase assay kit (Promega Corporation, Madison, WI, USA (Promega)), GCS activity was indirectly measured by detecting the amount of UDP produced. An aliquot of GCS enzyme (1.5 μg crude golgi preparation, total protein) and titrated test compound were aliquoted to each well and incubated for 30 minutes at room temperature. […] An equivalent volume of substrate mixture was then added to each well. Following a 20 h incubation at room temperature to allow for GCS turnover of substrate, an equal volume of UDP detection reagent (Promega) was added to each well and incubated for an additional 75 minutes at room temperature to simultaneously convert the accumulated UDP product into ATP and generate light in a luciferase reaction. The generated light was detected using a luminometer. […] luminescence values (RLUs) were normalized to mean “min” and “max” effects, as determined on each plate. “Min” was defined as the mean of the values of the wells treated with vehicle (DMSO) and which represent 0% inhibition; “max” was defined as the mean of the values of the wells treated with a reference inhibitor and which represent the 100% effect. Values for % Emax and EC50 were determined by best-fitting the normalized data to a curve in Activity Base along a four-parameter logistic nonlinear regression (4PL) model (based on the Levenberg-Marquardt algorithm and defined by the equation below): […]
where: n is 4PMin (bottom of the curve); m is 4PMax (top of the curve); i is IP (inflection point of curve); and p is slope. See Levenberg, K., “A Method for the Solution of Certain Problems in Least Squares”, Quart. Appl. Math. 2, (1944), pp 164-168 and Marquardt, D., “An Algorithm for Least Squares Estimation on Nonlinear Parameters”, SIAM J. Appl. Math 11, (1963) pp 431-441.
`N#Cc1cnc(C2CC2)nc1OCC1CCN(c2ccccc2)C1` (stereo not drawn) [Compound 100, 2-cyclopropyl-4-((1-phenylpyrrolidin-3-yl)methoxy)pyrimidine-5-carbonitrile] gave a negative logarithm of the IC50 (pIC50) of 6.80. To `CNC(=O)C12CN(c3nc(C4CC4)ncc3C#N)CC1C(c1ccc(C)cc1)=NO2` (stereo not drawn) [Compound 85, 5-(5-cyano-2-cyclopropylpyrimidin-4-yl)-N-methyl-3-(p-tolyl)-3a,4,5,6-tetrahydro-6aH-pyrrolo[3,4-d]isoxazole-6a-carboxamide] belongs 6.77; to `Cc1nnc(-c2ccc(N3CC[C@H](COc4nc(C5CC5)ncc4C#N)C3)cc2)s1` [Compound 13, (S)-2-cyclopropyl-4-((1-(4-(5-methyl-1,3,4-thiadiazol-2-yl)phenyl)pyrrolidin-3-yl)methoxy)pyrimidine-5-carbonitrile], 7.10; to `N#Cc1cnc(C2CC2)nc1N1CCN(Cc2nc(-c3ccc(Cl)cc3)no2)CC1` [Compound 70, 4-(4-((3-(4-chlorophenyl)-1,2,4-oxadiazol-5-yl)methyl)piperazin-1-yl)-2-cyclopropylpyrimidine-5-carbonitrile], 6.06. To `Cc1nc2c(s1)CCCC2Nc1nc(C2CC2)nc(Cl)c1CO` (single isomer, unassigned) [Compound 110, (4-chloro-2-cyclopropyl-6-((2-methyl-4,5,6,7-tetrahydrobenzo[d]thiazol-4-yl)amino)pyrimidin-5-yl)methanol] belongs 6.58. In turn, `Cc1nc(N2CC(c3nc4ccccc4[nH]3)C2)cc(N2CC(CC(C)C)CC2=O)n1` (stereo not drawn) [Compound 118, 1-(6-(3-(1H-benzo[d]imidazol-2-yl)azetidin-1-yl)-2-methylpyrimidin-4-yl)-4-isobutylpyrrolidin-2-one] gave a negative logarithm of the IC50 (pIC50) of 5.54.

In turn, `N#Cc1cnc(C2CC2)nc1OCC1CCN(c2ccc(Cl)cc2)C1` (stereo not drawn) [Compound 57, 4-((1-(4-chlorophenyl)pyrrolidin-3-yl)methoxy)-2-cyclopropylpyrimidine-5-carbonitrile] had a negative-log IC50 (pIC50) of 7.70. This pIC50 is 2.16 log units higher than that of the compound before. To `CCC(C)c1nc2c(s1)CCCC2Nc1nc(C2CC2)nc(Cl)c1CO` (stereo not drawn) [Compound 116, (4-((2-(sec-butyl)-4,5,6,7-tetrahydrobenzo[d]thiazol-4-yl)amino)-6-chloro-2-cyclopropylpyrimidin-5-yl)methanol] belongs 5.41; to `N#Cc1cnc(C2CC2)nc1OC[C@H]1CCN(c2ccc(-n3cccn3)nc2)C1` [Compound 55, (S)-4-((1-(6-(1H-pyrazol-1-yl)pyridin-3-yl)pyrrolidin-3-yl)methoxy)-2-cyclopropylpyrimidine-5-carbonitrile], 7.11. To `N#Cc1cnc(C2CC2)nc1N1CCOCC1c1ccccc1F` (stereo not drawn) [Compound 68, 2-cyclopropyl-4-(3-(2-fluorophenyl)morpholino)pyrimidine-5-carbonitrile] belongs 6.26; to `N#Cc1cnc(C2CC2)nc1OCC1CCN(c2ccc(Cl)cc2)C1` (stereo not drawn) [Compound 58, 4-((1-(4-chlorophenyl)pyrrolidin-3-yl)methoxy)-2-cyclopropylpyrimidine-5-carbonitrile], 6.81. Regarding `N#Cc1cnc(C2CC2)nc1OC[C@H]1CCN(c2ccc(-c3ccon3)cc2)C1` [Compound 19, (S)-2-cyclopropyl-4-((1-(4-(isoxazol-3-yl)phenyl)pyrrolidin-3-yl)methoxy)pyrimidine-5-carbonitrile], the negative-log IC50 (pIC50) is 7.43. To `CC(C)N1C(=O)[C@]2(c3ccsc3)CN(c3nc(C4CC4)ncc3C#N)C[C@@H]2S1(=O)=O` [Compound 71, 2-cyclopropyl-4-((3aS,6aR)-2-isopropyl-1,1-dioxido-3-oxo-3a-(thiophen-3-yl)hexahydro-5H-pyrrolo[3,4-d]isothiazol-5-yl)pyrimidine-5-carbonitrile] belongs 6.08. To `C=Cc1cc(N2CC(c3nc4ccccc4n3C)C2)nc(C)n1` [Compound 122, 1-methyl-2-(1-(2-methyl-6-vinylpyrimidin-4-yl)azetidin-3-yl)-1H-benzo[d]imidazole] belongs 5.47; to `COc1ccc(C)nc1N1CC[C@H](COc2nc(C3CC3)ncc2C#N)C1` [Compound 28, (S)-2-cyclopropyl-4-((1-(3-methoxy-6-methylpyridin-2-yl)pyrrolidin-3-yl)methoxy)pyrimidine-5-carbonitrile], 5.35.

`N#Cc1cnc(C2CC2)nc1NC1CCCc2sc(C3CCCCC3)nc21` (stereo not drawn) [Compound 94, 4-((2-cyclohexyl-4,5,6,7-tetrahydrobenzo[d]thiazol-4-yl)amino)-2-cyclopropylpyrimidine-5-carbonitrile] showed a negative logarithm of the IC50 (pIC50) of 7.85. This pIC50 is 2.50 log units higher than that of the compound before. To `Cc1cnc(N2CC[C@H](COc3nc(C4CC4)ncc3C#N)C2)c(C)c1` [Compound 17, (S)-2-cyclopropyl-4-((1-(3,5-dimethylpyridin-2-yl)pyrrolidin-3-yl)methoxy)pyrimidine-5-carbonitrile] belongs 5.99. To `COC(=O)c1cc(N2CC(c3nc4ccccc4n3C)C2)nc(C)n1` [Compound 121, methyl 2-methyl-6-(3-(1-methyl-1H-benzo[d]imidazol-2-yl)azetidin-1-yl)pyrimidine-4-carboxylate] belongs 5.55. To `N#Cc1cnc(C2CC2)nc1OC[C@H]1CCN(c2cccc(-n3nccn3)c2)C1` [Compound 20, (S)-4-((1-(3-(2H-1,2,3-triazol-2-yl)phenyl)pyrrolidin-3-yl)methoxy)-2-cyclopropylpyrimidine-5-carbonitrile] belongs 6.45. `N#Cc1cnc(C2CC2)nc1N1CCN(Cc2ccccc2)C[C@@H]1COCc1ccccc1` [Compound 79, (R)-4-(4-bnezyl-2-((benzyloxy)methyl)piperazin-1-yl)-2-cyclopropylpyrimidine-5-carbonitrile] had a pIC50 of 5.49. To `N#Cc1cnc(C2CC2)nc1OCC12CC(COCc3ccccc3)(CO1)C2` [Compound 103, 4-((4-((benzyloxy)methyl)-2-oxabicyclo[2.1.1]hexan-1-yl)methoxy)-2-cyclopropylpyrimidine-5-carbonitrile] belongs 5.68; to `N#Cc1cnc(C2CC2)nc1OC[C@H]1CCN(c2cc(C(F)(F)F)ccn2)C1` [Compound 46, (S)-2-cyclopropyl-4-((1-(4-(trifluoromethyl)pyridin-2-yl)pyrrolidin-3-yl)methoxy)pyrimdiine-5-carbonitrile], 5.38. To `Cc1nccc(-c2cccc(N3CC[C@H](COc4nc(C5CC5)ncc4C#N)C3)c2)n1` [Compound 15, (S)-2-cyclopropyl-4-((1-(3-(2-methylpyrimidin-4-yl)phenyl)pyrrolidin-3-yl)methoxy)pyrimidine-5-carbonitrile] belongs 6.09; to `N#Cc1cnc(C2CC2)nc1OC[C@H]1CCN(c2cccc3cnccc23)C1` [Compound 33, (S)-2-cyclopropyl-4-((1-(isoquinolin-5-yl)pyrrolidin-3-yl)methoxy)pyrimidine-5-carbonitrile], 5.85; to `OCc1cnc(C2CC2)nc1OC[C@H]1CN(c2ccc(C(F)(F)F)nc2)CCO1` [Compound 4, (R)-(2-cyclopropyl-4-((4-(6-(trifluoromethyl)pyridin-3-yl)morpholin-2-yl)methoxy)pyrimidin-5-yl)methanol], 5.86. To `N#Cc1cnc(C2CC2)nc1NC1CCCc2sc(C3CCC3)nc21` (stereo not drawn) [Compound 96, 4-((2-cyclobutyl-4,5,67-tetrahydrobenzo[d]thiazol-4-yl)amino)-2-cyclopropylpyrimidine-5-carbonitrile] belongs 7.34. Compound `N#Cc1cnc(C2CC2)nc1OC[C@@H]1CCN(c2ccc(C(F)(F)F)nc2)C1` [Compound 45, (R)-2-cyclopropyl-4-((1-(6-(trifluoromethyl)pyridin-3-yl)pyrrolidin-3-yl)methoxy)pyrimidine-5-carbonitrile] showed a pIC50 of 6.59. This pIC50 is 0.75 log units lower than that of the compound before. To `COc1ccc(N2CCC(COc3nc(C4CC4)ncc3C#N)C2)cc1` (stereo not drawn) [Compound 107, 2-cyclopropyl-4-((1-(4-methoxyphenyl)pyrrolidin-3-yl)methoxy)pyrimidine-5-carbonitrile] belongs 7.17; to `N#Cc1cnc(C2CC2)nc1OC[C@H]1CCN(c2cccc3ncccc23)C1` [Compound 34, (S)-2-cyclopropyl-4-((1-(quinolin-5-yl)pyrrolidin-3-yl)methoxy)pyrimidine-5-carbonitrile], 5.69; to `CC(Oc1nc(C2CC2)ncc1C#N)[C@H]1CCN(c2ncc(C(F)(F)F)cn2)C1` (stereo partly drawn) [Compound 50, 2-cyclopropyl-4-(1-((S)-1-(5-(trifluoromethyl)pyrimidin-2-yl)pyrrolidin-3-yl)ethoxy)pyrimidine-5-carbonitrile], 7.09.
